Measurements published in ChEMBL document CHEMBL3881528, “Macrocyclic Quinoxaline Compounds as HCV NS3 Protease Inhibitors” (2010).

How the values were obtained:
Liver = assay: Covalent protein binding in rat liver at 25 to 75 […], po using radio-labeled compound measured at 6 hrs by scintillation counting method; type: ADME, organism-based; details: in vivo
Plasma = assay: Covalent protein binding in rat plasma at 25 to 75 […], po using radio-labeled compound measured at 6 hrs by scintillation counting method; type: ADME, organism-based
[1] = Drug level in rat liver at 25 mg/kg, po measured at 24 hrs by RP-HPLC method; type: ADME, organism-based; details: read-out: Drug uptake
[2] = Drug level in dog liver at 5 mg/kg, po measured at 24 hrs by RP-HPLC method; type: ADME, organism-based, Canis lupus familiaris; details: read-out: Drug uptake

Row | SMILES | PB (Liver) [pmolequiv/mg] | PB (Plasma) [pmolequiv/mg] | concentration at 24 h [1] [µM] | concentration at 24 h [2] [µM]
1 | C=C[C@@H]1C[C@]1(NC(=O)[C@@H]1C[C@@H]2CN1C(=O)[C@H](C(C)(C)C)NC(=O)O[C@@H]1C[C@H]1CCCCCc1nc3ccc(OC)cc3nc1O2)C(=O)[N-]S(=O)(=O)C1CC1.[K+] | 3 | 3 | 27.9 | 120
2 | C=C[C@@H]1C[C@]1(NC(=O)[C@@H]1C[C@@H]2CN1C(=O)[C@H](C(C)(C)C)NC(=O)O[C@@H]1CCC[C@H]1CCCCCc1nc3ccc(OC)cc3cc1O2)C(=O)NS(=O)(=O)C1CC1 | 24 | 6 | – | –
3 | C=C[C@@H]1C[C@]1(NC(=O)[C@@H]1C[C@@H]2CN1C(=O)[C@H](C(C)(C)C)NC(=O)O[C@@H]1C[C@H]1CCCCCc1nc3ccc(OC)cc3cc1O2)C(=O)[N-]S(=O)(=O)C1CC1.[K+] | – | – | 8.5 | 3.3
4 | C=C[C@@H]1C[C@]1(NC(=O)[C@@H]1C[C@@H]2CN1C(=O)[C@H](C1CCCC1)NC(=O)O[C@@H]1CCC[C@H]1CCCCCc1nc3ccccc3cc1O2)C(=O)NS(=O)(=O)C1CC1 | 63 | 6 | – | –
5 | C=C[C@@H]1C[C@]1(NC(=O)[C@@H]1C[C@@H]2CN1C(=O)[C@H](C1CCCC1)NC(=O)O[C@@H]1CCC[C@H]1CCCCCc1nc3ccccc3nc1O2)C(=O)NS(=O)(=O)C1CC1 | 38 | 15 | – | –
